One assay deals with C2C12 myoblasts. Description: Trypan blue cell death of C2C12 cells treated with cytokines. Conditions: C2C12, 24 h, cytokines at 5 ng/mL. The format is cell-based, murine. On the procedure: FIG. 5C is a graph depicting cell death assessed by trypan blue dye staining performed on C2C12 cells that were treated for 24 h with individual cytokines or a mixture (Cocktail) of IL-1, IL-6, TNFα, and IFNγ (all at 5 ng/mL). As a negative control, cells were treated with serum-free medium.
Trypan Blue Staining. Trypan blue dye was purchased from Gibco (15250-061), and staining was performed following the manufacturer's protocol. Dead cells are blue in color under the microscope and were counted using a hemocytometer.

A further assay has as its system phospho-JNK. Description: Western blot of treated C2C12 extracts, phospho-JNK. The format is cell-based, murine. Conditions: proliferating myoblasts, Western blot time course. As to the method: (§1) FIG. 9B is an image of a Western blot on extracts of C2C12 cells that had been treated with either LLC-derived MVs (Upper) or synthetic miR-21 (Lower, using miR-16 as control), which were probed with antibodies against phospho-JNK, phospho-c-jun, and phospho-p38 at different times, as indicated.
(§2) Western Blot. Western blots were performed as previously described (2). Antibodies used and their dilutions are listed: p-JNK (Cell Signaling Technology, 1:2,000), p-c-Jun (Cell Signaling Technology, 1:1,000), p-p38 (Cell Signaling Technology, 1:2,000), and vinculin (Abeam, 1:3,000).

A further assay concerns phospho-p38. Description: Western blot of treated C2C12 extracts, phospho-p38. The format is cell-based, murine. The conditions noted are these: proliferating myoblasts, Western blot time course. As to the method: as §1, §2
A further assay deals with phospho-c-jun. The assay is described as follows: Western blot of treated C2C12 extracts, phospho-c-jun. The format is cell-based, murine. Conditions: proliferating myoblasts, Western blot time course. On the procedure:
as §1, §2

Assay [1] concerns TLR7−/− primary myoblasts. The assay is described as follows: Cell viability (cell counter) of TLR7-/- primary myoblasts treated with Dotap formulations of miRNAs. The format is cell-based, mice. Conditions: Dotap formulation, 24 h. As to the method: (§3) FIG. 4A is a graph depicting cell viability assessed with a cell counter for TLR7+/+ and TLR7−/− primary myoblasts that were treated with Dotap formulations of miR-16 and miR-21 for 24 h. As negative control, cells were incubated with Dotap alone. Experiments were performed in quadruplicate. Results are presented as average±SEM. *P≤0.05; **P≤0.01; ***P≤0.001.
(§4) MV Treatment. C2C12 immortalized myoblasts or primary myoblasts isolated from mice were treated with MVs at indicated times. Cell numbers of myoblasts were counted on a hemocytometer.
(§5) Myoblast Isolation and Culture. Primary myoblasts were isolated as previously described (2) and preplated twice, using noncoated tissue culture dishes, and then cultured either on a matrigelcoated 96-well plate for MTS assay reading at indicated times or on a matrigel-coated 12-well plate for protein and RNA analysis.
Mice. Cachexia in the LLC model were induced as previously described (2). TLR7−/− mice were obtained from Jackson Laboratory. Wild-type C57B6 male mice at the same age and weight were used as TLR7+/+ controls. All genotypes were determined by PCR, using tail DNA. All procedures used in this study complied with federal guidelines and the institutional policies of the Ohio State University Animal Care and Use Committee.

Assay [2] has as its system TLR7+/+ primary myoblasts. Description: Cell viability (cell counter) of TLR7+/+ primary myoblasts treated with Dotap formulations of miRNAs. The format is cell-based, mice. The conditions noted are these: Dotap formulation, 24 h. As to the method: as §3, §4, §5

For the substance IFN-γ: proinflammatory cytokine, the “effect on the viability of proliferating murine C2C12 myoblasts” value in the assay with C2C12 myoblasts is “little or no effect”.
Same read-out and setting: the same measure for IL-1β: proinflammatory cytokine: “little or no effect”; for TNFα: “little or no effect”.
UAGCUUAUCAGACUGAUGUUGA [miR-21]: in the assay with phospho-JNK, the JNK activation result is recorded as “transiently induced”. Moreover, in the assay with phospho-p38, the p38 activity result was “no significant change”. Also, in the assay on phospho-c-jun, the c-JUN activation result is “transiently induced”. The “cell death on exogenous addition of miRNA” value was “significantly blunted” in assay [1], “does not completely rescue” in assay [1] (listed as miR21) and “induced pronounced cell death” in assay [2].
Turning to IL-6: proinflammatory cytokine, the “effect on the viability of proliferating murine C2C12 myoblasts” value in the assay on C2C12 myoblasts is “little or no effect”.
